The values below come from US10464947B2 (Incyte Corporation, priority 2013, dated 2019).

A value given as a limit tells only on which side of the number the result lay.

One test concerns KMS.12.BM cells. The test can be described thus: KMS.12.BM Cell Viability Assay (Example B1). Type of test: cell-based, human. As to conditions: Homo sapiens, 72 h, 3 days, Cell Titer-GLO, read-out: KMS cellular IC50. The method, then: KMS.12.BM cell line (human myeloma) was purchased from JCRB (Osaka, Japan) and maintained in RPMI with 10% FBS culture medium. To measure the cytotoxic activity of the compounds through ATP quantitation, the KMS.12.BM cells are plated in the RPMI culture medium at 5000 cells/well/per 100 μL into a 96-well polystyrene clear black tissue culture plate (Greiner-bio-one through VWR, NJ), in the presence or absence of a concentration range of test compounds. After 3 days, […] Cell Titer-GLO Luminescent (Promega, Madison, Wis.) cell culture agent is added to each well for 10 min. at room temperature to stabilize the luminescent signal. This determines the number of viable cells in culture based on quantitation of the ATP present, which signals the presence of metabolically active cells.
`CC(=O)N[C@@H]1CCN(c2nc3ccc(-c4c(C)noc4C)c4c3n2[C@@H](c2ccccn2)CO4)C1` [Example 201A, N-{(3R)-1-[(4S)-7-(3,5-dimethylisoxazol-4-yl)-4-pyridin-2-yl-4,5-dihydroimidazo[1,5,4-de][1,4]benzoxazin-2-yl]pyrrolidin-3-yl}acetamide]: the IC50 (in general, the concentration that inhibits the measured activity by half) is less than 1000 nM.
Same read-out and setting: to `Cc1noc(C)c1-c1ccc2nc(C(=O)OC(C)(C)C)n3c2c1OC[C@@H]3c1ccccn1` [Example 93, tert-Butyl (4S)-7-(3,5-dimethylisoxazol-4-yl)-4-pyridin-2-yl-4,5-dihydroimidazo[1,5,4-de][1,4]benzoxazine-2-carboxylate] belongs less than 1000 nM; to `CCN1CCN(c2nc3ccc(-c4c(C)noc4C)c4c3n2[C@@H](c2ccccn2)CO4)CC1` [Example 192, (4S)-7-(3,5-dimethylisoxazol-4-yl)-2-(4-ethylpiperazin-1-yl)-4-pyridin-2-yl-4,5-dihydroimidazo[1,5,4-de][1,4]benzoxazine], less than 1000 nM.
The same measure, in the same setting: to `Cc1noc(C)c1-c1ccc2nc(C3=CCNCC3)n3c2c1OC[C@@H]3c1ccccn1` [Example 104, (4S)-7-(3,5-dimethylisoxazol-4-yl)-4-pyridin-2-yl-2-(1,2,3,6-tetrahydropyridin-4-yl)-4,5-dihydroimidazo[1,5,4-de][1,4]benzoxazine] belongs less than 1000 nM; to `Cc1noc(C)c1-c1cc(C)c2[nH]c(=O)n3c2c1OCC3c1ccccc1` (stereo not shown) [Example 46, 7-(3,5-Dimethylisoxazol-4-yl)-9-methyl-4-phenyl-4,5-dihydroimidazo[1,5,4-de][1,4]benzoxazin-2(1H)-one], less than 1000 nM; to `Cc1noc(C)c1-c1ccc2[nH]c(=S)n3c2c1OCC3c1ccccn1` (stereo not shown) [Example 255, 7-(3,5-Dimethylisoxazol-4-yl)-4-pyridin-2-yl-4,5-dihydroimidazo[1,5,4-de][1,4]benzoxazine-2(1H)-thione], less than 1000 nM.
On the same count and under the same terms, to `CCC(=O)N1CCN(c2nc3ccc(-c4c(C)noc4C)c4c3n2[C@@H](c2ccccn2)CO4)CC1` [Example 225, (4S)-7-(3,5-dimethylisoxazol-4-yl)-2-(4-propionylpiperazin-1-yl)-4-pyridin-2-yl-4,5-dihydroimidazo[1,5,4-de][1,4]benzoxazine] belongs less than 1000 nM; to `Cc1noc(C)c1-c1ccc2nc(N3CCN(CC4CC4)CC3)n3c2c1OC[C@@H]3c1ccccn1` [Example 183, (4S)-2-[4-(cyclopropylmethyl)piperazin-1-yl]-7-(3,5-dimethylisoxazol-4-yl)-4-pyridin-2-yl-4,5-dihydroimidazo[1,5,4-de][1,4]benzoxazine], less than 1000 nM; to `CNC(=O)[C@@H]1CCN(c2nc3ccc(-c4c(C)noc4C)c4c3n2[C@@H](c2ccccn2)CO4)C1` [Example 249, (3R)-1-[(4S)-7-(3,5-dimethylisoxazol-4-yl)-4-pyridin-2-yl-4,5-dihydroimidazo[1,5,4-de][1,4]benzoxazin-2-yl]-N-methylpyrrolidine-3-carboxamide], less than 1000 nM.
As to `Cc1noc(C)c1-c1ccc2nc(N3CC[C@@H](NC(=O)CC#N)C3)n3c2c1OC[C@@H]3c1ccccn1` [Example 211, 2-cyano-N-{(3R)-1-[(4S)-7-(3,5-dimethylisoxazol-4-yl)-4-pyridin-2-yl-4,5-dihydroimidazo[1,5,4-de][1,4]benzoxazin-2-yl]pyrrolidin-3-yl}acetamide], the IC50 was less than 1000 nM.
On the same count and under the same terms, to `Cc1noc(C)c1-c1ccc2nc(N3CC[C@@H](C(=O)NC4CC4)C3)n3c2c1OC[C@@H]3c1ccccn1` [Example 251, (3R)-N-cyclopropyl-1-[(4S)-7-(3,5-dimethylisoxazol-4-yl)-4-pyridin-2-yl-4,5-dihydroimidazo[1,5,4-de][1,4]benzoxazin-2-yl]pyrrolidine-3-carboxamide] belongs less than 1000 nM.
Same read-out and setting: to `Cc1noc(C)c1-c1ccc2nc(N3CCC(N(C)C)CC3)n3c2c1OC[C@@H]3c1ccccn1` [Example 171, 1-[(4S)-7-(3,5-dimethylisoxazol-4-yl)-4-pyridin-2-yl-4,5-dihydroimidazo[1,5,4-de][1,4]benzoxazin-2-yl]-N,N-dimethylpiperidin-4-amine] belongs less than 1000 nM.
The same measure, in the same setting: to `Cc1noc(C)c1-c1ccc2nc(N3CC(NC(=O)C4CCC4)C3)n3c2c1OC[C@@H]3c1ccccn1` [Example 236, N-{1-[(4S)-7-(3,5-dimethylisoxazol-4-yl)-4-pyridin-2-yl-4,5-dihydroimidazo[1,5,4-de][1,4]benzoxazin-2-yl]azetidin-3-yl}cyclobutanecarboxamide] belongs less than 1000 nM; to `Cc1noc(C)c1-c1ccc2nc(N3CCCN(S(N)(=O)=O)CC3)n3c2c1OC[C@@H]3c1ccccn1` [Example 147, 4-[(4S)-7-(3,5-Dimethylisoxazol-4-yl)-4-pyridin-2-yl-4,5-dihydroimidazo[1,5,4-de][1,4]benzoxazin-2-yl]-1,4-diazepane-1-sulfonamide], less than 1000 nM; to `Cc1noc(C)c1-c1ccc2nc(C3=CCN(C(=O)OC(C)(C)C)CC3)n3c2c1OC[C@@H]3c1ccccn1` [Example 97, tert-Butyl 4-[(4S)-7-(3,5-dimethylisoxazol-4-yl)-4-pyridin-2-yl-4,5-dihydroimidazo[1,5,4-de][1,4]benzoxazin-2-yl]-3,6-dihydropyridine-1 (2H)-carboxylate], less than 1000 nM.
Regarding `Cc1noc(C)c1-c1ccc2nc(N3CCC(NC(=O)C(F)(F)F)CC3)n3c2c1OC[C@@H]3c1ccccn1` [Example 242, N-{1-[(4S)-7-(3,5-dimethylisoxazol-4-yl)-4-pyridin-2-yl-4,5-dihydroimidazo[1,5,4-de][1,4]benzoxazin-2-yl]piperidin-4-yl}-2,2,2-trifluoroacetamide], the IC50 was less than 1000 nM.
As to `COCC(=O)NC1CN(c2nc3ccc(-c4c(C)noc4C)c4c3n2[C@@H](c2ccccn2)CO4)C1` [Example 234, N-{1-[(4S)-7-(3,5-dimethylisoxazol-4-yl)-4-pyridin-2-yl-4,5-dihydroimidazo[1,5,4-de][1,4]benzoxazin-2-yl]azetidin-3-yl}-2-methoxyacetamide], the IC50 was less than 1000 nM.
Same read-out and setting: to `Cc1noc(C)c1-c1ccc2nc(N3CC(NC(=O)C4CC4)C3)n3c2c1OC[C@@H]3c1ccccn1` [Example 235, N-{1-[(4S)-7-(3,5-dimethylisoxazol-4-yl)-4-pyridin-2-yl-4,5-dihydroimidazo[1,5,4-de][1,4]benzoxazin-2-yl]azetidin-3-yl}cyclopropanecarboxamide] belongs less than 1000 nM.
For the compound `Cc1noc(C)c1-c1ccc2nc(N3CCC[C@H](O)C3)n3c2c1OC[C@@H]3c1ccccn1` [Example 170B, (3S)-1-[(4S)-7-(3,5-dimethylisoxazol-4-yl)-4-pyridin-2-yl-4,5-dihydroimidazo[1,5,4-de][1,4]benzoxazin-2-yl]piperidin-3-ol], the IC50 is less than 1000 nM.
On the same count and under the same terms, to `Cc1noc(C)c1-c1ccc2nc(N3CCNC(=O)C3C)n3c2c1OC[C@@H]3c1ccccn1` (stereo partly drawn) [Example 195, 4-[(4S)-7-(3,5-dimethylisoxazol-4-yl)-4-pyridin-2-yl-4,5-dihydroimidazo[1,5,4-de][1,4]benzoxazin-2-yl]-3-methylpiperazin-2-one] belongs less than 1000 nM; to `Cc1noc(C)c1-c1ccc2nc(N3CCN(C)CC3)n3c2c1OC[C@@H]3c1ccccn1` [Example 163, (4S)-7-(3,5-dimethylisoxazol-4-yl)-2-(4-methylpiperazin-1-yl)-4-pyridin-2-yl-4,5-dihydroimidazo[1,5,4-de][1,4]benzoxazine], less than 1000 nM.
Turning to `Cc1noc(C)c1-c1ccc2nc(N3CCC(C(N)=O)CC3)n3c2c1OC[C@@H]3c1ccccn1` [Example 188, 1-[(4S)-7-(3,5-dimethylisoxazol-4-yl)-4-pyridin-2-yl-4,5-dihydroimidazo[1,5,4-de][1,4]benzoxazin-2-yl]piperidine-4-carboxamide], the IC50 is less than 1000 nM.
Turning to `Cc1noc(C)c1-c1cc(CNC(C)C)c2[nH]c(=O)n3c2c1OCC3c1ccccn1` (stereo not shown) [Example 253, 7-(3,5-Dimethylisoxazol-4-yl)-9-[(isopropylamino)methyl]-4-pyridin-2-yl-4,5-dihydroimidazo[1,5,4-de][1,4]benzoxazin-2(1H)-one], the IC50 is 1000 to 10000 nM.
Same read-out and setting: to `Cc1noc(C)c1-c1ccc2nc(C3CCN(S(C)(=O)=O)CC3)n3c2c1OC[C@@H]3c1ccccn1` [Example 112, (4S)-7-(3,5-dimethylisoxazol-4-yl)-2-[1-(methylsulfonyl)piperidin-4-yl]-4-pyridin-2-yl-4,5-dihydroimidazo[1,5,4-de][1,4]benzoxazine] belongs less than 1000 nM; to `CNc1nc2ccc(-c3c(C)noc3C)c3c2n1C(c1ccccn1)CO3` (stereo not shown) [Example 186, 7-(3,5-dimethylisoxazol-4-yl)-N-methyl-4-pyridin-2-yl-4,5-dihydroimidazo[1,5,4-de][1,4]benzoxazin-2-amine], less than 1000 nM.

Still in this test, the particulars now being: Homo sapiens, KMS-12-BM, 72 h, 3 days, Cell Titer-GLO, read-out: KMS cellular IC50.
`Cc1noc(C)c1-c1cc(Cl)c2[nH]c(=O)n3c2c1OCC3c1ccccn1` (single isomer, unassigned) [Example 266A, 9-chloro-7-(3,5-dimethylisoxazol-4-yl)-4-pyridin-2-yl-4,5-dihydroimidazo[1,5,4-de][1,4]benzoxazin-2(1H)-one]: the IC50 was less than 1000 nM.
For the compound `Cc1noc(C)c1-c1ccc2[nH]c(=O)n3c2c1OC(C(=O)N(C)C)C3c1ccccc1` (single isomer, unassigned) [Example 47B, 7-(3,5-Dimethylisoxazol-4-yl)-N,N-dimethyl-2-oxo-4-phenyl-1,2,4,5-tetrahydroimidazo[1,5,4-de][1,4]benzoxazine-5-carboxamide], the IC50 lay in the range of 1000 to 10000 nM.
Still for that read-out and setting: to `Cc1cc(-c2ccnn2C)c2c3c1[nH]c(=O)n3C(c1ccccc1)CO2` (stereo not shown) [Example 37, 9-Methyl-7-(1-methyl-1H-pyrazol-5-yl)-4-phenyl-4,5-dihydroimidazo[1,5,4-de][1,4]benzoxazin-2(1H)-one] belongs less than 1000 nM.
